Several values for one entry are separate records, joined by “and”; a condition that tells them apart may be missing. Equal values may be shown once. Where a name gives a salt, the structure may show the parent alone. Read-outs that look alike come from different tables or passages of the source.

One data set concerns P. falciparum. Put plainly: Antimalarial activity against P. falciparum in vitro (Desjardins [3H]hypoxanthine incorporation). The format is cell-based. As to the method: FIG. 1, the anti-malarial action of a precursor of thiazolium (designated by TE4c in the examples), and corresponding thiazolium (T4) as a function of the concentration of drug, according to the Desjardins test, (Desjardins R. E. et al, Antimicrob. Agents Chemother. 1979, 16, 710-718),
The IC50 measurements are determined vis-à-vis P. falciparum according to the Desjardins method in which the incorporation of [^3H] hypoxanthine (FIG. 1) into the nucleic acids is an indicator of cell viability. In each case, optical microscopy controls are carried out.
(§1) The IC50 is the concentration which inhibits by 50% the in vitro growth of P. falciparum: the LD50 is the lethal dose corresponding to the death of 50% of the mice and the ED50 is the effective dose for inhibiting by 50% the in vivo growth of P. vinckei according to a 4-day suppressive test, TI corresponds to the therapeutic index, TI=LD50 (semi-chronic)/ED50; ip: intraperitoneal administration; po: per os.

Data set [1] can be described thus: Tolerance in the mouse: LD50 after acute or semi-chronic administration. It counts as in vivo. To be noted: for Oral absorption index (LD50 po/LD50 ip ratio, acute): acute administration; for LD50 / LD50 at 4 days: in vivo; for LD50 / In vivo LD50 (mg/kg) (mouse) acute: single dose; for LD50 at 4 days / In vivo LD50 (mg/kg) (mouse) semi-chronic: twice per day for 4 consecutive days; for LD50 at 4 days: read-out: In vivo LD50 (mg/kg) (mouse) semi-chronic.
Source text: (§2) B) Antimalarial Activity in vivo Against a Mouse Infected by P. vinckei and Tolerance After Administration in Acute or Semi-chronic Conditions.
as §1

Another data set deals with P. vinckei. The experiment in a line: animal or person. It counts as in vivo. The following applies: Plasmodium vinckei, 96 h, mouse, 4-day suppressive test, TE4c in 50/50 PEG/castor oil, read-out: In vivo ED50 (mg/kg) (P. vinckei).
Source text: as §2, §1

Where [2] appears, read: in vitro growth of P. falciparum, [3H]hypoxanthine incorporation, 48 hours test, read-out: IC50.
[3] abbreviates: ip, TE4c value corresponds to death of only 25% of the mice.

Turning to “1,12-decamethylene bis[4-methyl-5-(2-methoxyethyl)thiazolium] diiodide [T4]”, the IC50 with P. falciparum (setting [2]) was 0.65 nM. On the same count and under the same terms, the figure for “1,16-hexadecamethylenebis[4-methyl-5-(2-methoxyethyl)thiazolium] diiodide [T8]” is 1.1 nM; for “2,15-(N,N′-diformyl-N,N′-dibenzyl)diamino-1,16-S-thiobenzoyl-hexadeca-1,15-diene [TE16]” it is 12 nM. As to `C[N+]1(CCCCCCCCCCCCCCCC[N+]2(C)CCCC2)CCCC1` [G25, 1,16-hexadecamethylene bis-(N-methylpyrrolidinium), reference compound], in data set [1], the “Oral absorption index (LD50 po/LD50 ip ratio, acute)” value came out at 87. Further, the LD50 in data set [1] (ip) came to 1.27 mg/kg; in data set [1] (po) it was 130 mg/kg. The LD50 at 4 days was determined as 1.15 mg/kg in data set [1] (setting [3]) and 65 mg/kg in data set [1] (po). In the data set with P. falciparum (Plasmodium falciparum), this compound came in with a concentration for half-maximal inhibition (IC50) of 0.6 nM. Further, the ED50 in the data set with P. vinckei (ip) was 0.22 mg/kg; in the data set on P. vinckei (po), roughly 15 mg/kg. On to `CC(Cl)CCCN(C)CCCCCCCCCCCCCCCCN(C)CCCC(C)Cl` (centres unmarked) [P2, N,N′-dimethyl-N,N′-(4-chloropentyl)-1,16-hexadecanediamine hydrochloride], for which the IC50 in the data set with P. falciparum (setting [2]) is 0.5 nM.

Turning to `Cc1c(CCO)sc[n+]1CCCCCCCCCCCC[n+]1csc(CCO)c1C.[Br-].[Br-]` [T3, 1,12-dodecamethylene bis [4-methyl-5-(2-hydroxyethyl)thiazolium] dibromide], the “Oral absorption index (LD50 po/LD50 ip ratio, acute)” value in data set [1] stood at 70. For the same compound, the “In vivo LD50 (mg/kg) (mouse) acute” value in data set [1] (ip) is on record as 10 mg/kg; in data set [1] (po) it was 700 mg/kg. For the same compound, the entries for the “In vivo LD50 (mg/kg) (mouse) semi-chronic” value in data set [1] (setting [3]) and in data set [1] (po) were 7.5 mg/kg and 160 mg/kg, respectively. Also, the IC50 with P. falciparum (setting [2]) amounted to 2.25 nM. On to `Cc1csc[n+]1CCCCCCCCCCCC[n+]1cscc1C` [T6, 1,12-dodecamethylenebis(4-methylthiazolium) diiodide], for which the IC50 in the data set on P. falciparum (setting [2]) came out at 3 nM. Still for that read-out and setting: the same measure for `Cc1c(CCOCCCCCCOCCc2sc[n+](Cc3ccccc3)c2C)sc[n+]1Cc1ccccc1` [T10, 3,10-dioxadodecamethylenebis[5-(1-benzyl, 4-methyl)-thiazolium] dibromide]: 2.5 nM. Still for that read-out and setting: the same measure for `CCOC(=O)CCc1c(CCCCCCCCCCCCc2sc[n+](Cc3ccccc3)c2CCC(=O)OCC)sc[n+]1Cc1ccccc1` [T13, dodecamethylenebis[5-(1-benzyl-4-ethoxycarbonylethyl)-thiazolium] dibromide]: 250 nM; for `c1ccc(Cc2csc[n+]2CCCCCCCCCCCC[n+]2cscc2Cc2ccccc2)cc1` [T16, dodecamethylenebis[4-(1-benzyl)-thiazolium] dibromide]: 10 nM. As for `CC(=C1CCOC(=O)S1)N(C=O)CCCCCCCCCCCCN(C=O)C(C)=C1CCOC(=O)S1` [TE3, N,N′-diformyl-N,N′-di[1(2-oxo-4,5-dihydro-1,3-oxathian-4-ylidene)ethyl]1,12-diaminododecane], the IC50 in the data set on P. falciparum (setting [2]) is 3 nM and 2.6 nM. Regarding `CCN(CC)Cc1ccc(C(=O)SC(CCOC)=C(C)N(C=O)CCCCCCCCCCCCN(C=O)C(C)=C(CCOC)SC(=O)c2ccc(CN(CC)CC)cc2)cc1` [TE4f, N,N′-diformyl-N,N′-di[1-methyl-2-S-(p-diethylaminomethylphenylcarboxy)-thio-4-methoxybut-1-enyl]-1,12-diaminododecane], in the data set on P. falciparum (setting [2]), the IC50 turned out to be 2.3 nM. The same measure, in the same setting: the same measure for `COCCC(SC(=O)c1ccc(CN2CCOCC2)cc1)=C(C)N(C=O)CCCCCCCCCCCCN(C=O)C(C)=C(CCOC)SC(=O)c1ccc(CN2CCOCC2)cc1` [TE4g, N,N′-diformyl-N,N′-di[1-methyl-2-S-(p-morpholino-methylphenylcarboxy)-thio-4-methoxybut-1-enyl]-1,12-diaminododecane]: 2.3 nM; for `COc1ccc(C(=O)SC(CCOCCCCCCOCCC(SC(=O)c2ccc(OC)cc2)=C(C)N(C=O)Cc2ccccc2)=C(C)N(C=O)Cc2ccccc2)cc1` [TE10, 2,17-(N,N′-diformyl-N,N′-dibenzyl)diamino-3,16-S-thio-p-methoxybenzoyl-6,13-dioxaoctadeca-2,16-diene]: 12 nM. Regarding `CCOC(=O)CC(=C(CCCCCCCCCCCCC(SC(=O)c1ccccc1)=C(CC(=O)OCC)N(C=O)Cc1ccccc1)SC(=O)c1ccccc1)N(C=O)Cc1ccccc1` [TE13, ethyl 3,18-(N,N′-diformyl-N,N′-dibenzyl)diamino-4,17-S-thiobenzoyleicosa-3,17-dienedioate], the IC50 in the data set on P. falciparum (setting [2]) was found to be 650 nM. For the compound “N,N′-diformyl-N,N′-di[1-methyl-2-S-(p-phthaloyl)-thio-4-methoxybut-1-enyl]-1,12-diaminododecane [TE4j]”, the IC50 in the data set on P. falciparum (setting [2]) was found to be 2.7 nM. Still for that read-out and setting: the same measure for “N,N′-dimethyl-N,N′-(5-chloropentyl)-1,16-hexadecane diamine hydrochloride [P1]”: 1.7 nM.

Values taken from patent US6972343B1, “Quaternary bis-ammonium salt precursors and their uses as prodrugs having an antiparasitic activity” (CNRS, priority 1999, dated 2005).
